We go through 31 compounds from patent US9221834B2 (Merck Sharp & Dohme Corp., priority 2010, dated 2015).

pIC50: −log10 of the molar value.

For the assay, the target named is T1, recombinant CETP (rCETP) (Homo sapiens, UniProt P11597).
T1 sequence (P11597 18-493): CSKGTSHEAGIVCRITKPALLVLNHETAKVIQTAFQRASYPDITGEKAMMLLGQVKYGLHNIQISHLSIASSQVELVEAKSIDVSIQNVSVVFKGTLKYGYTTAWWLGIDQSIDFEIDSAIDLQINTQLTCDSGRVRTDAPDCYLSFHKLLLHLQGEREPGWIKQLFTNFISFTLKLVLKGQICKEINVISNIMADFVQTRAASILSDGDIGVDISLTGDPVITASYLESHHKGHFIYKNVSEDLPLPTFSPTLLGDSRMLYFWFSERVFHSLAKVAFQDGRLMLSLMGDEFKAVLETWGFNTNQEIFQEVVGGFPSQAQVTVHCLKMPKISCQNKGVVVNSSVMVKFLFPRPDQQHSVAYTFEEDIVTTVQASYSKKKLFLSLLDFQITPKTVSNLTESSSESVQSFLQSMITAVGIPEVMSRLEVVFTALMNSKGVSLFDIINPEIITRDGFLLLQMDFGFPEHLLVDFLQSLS
The experiment in a line: RTA assay using recombinant CETP (2% RTA). It counts as biochemical. As to conditions: RTA assay in 2% human serum; read-out: IC50. A digest of the protocol: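 Compounds preincubated 1 h at 37 °C with assay cocktail (CETP buffer: 50 mM Tris pH 7.4, 100 mM NaCl, 1 mM EDTA; human HDL acceptor); transfer started with [3H]cholesteryl oleate- or [3H]triolein-labelled LDL, 60 min at 37 °C. LDL PEG-precipitated; supernatant counted by scintillation, blank-corrected; IC50 from 4-parameter sigmoidal fit of % inhibition vs DMSO control.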
By pIC50 is commonly meant the negative decadic logarithm of the IC50, by convention in mol/L. As for `COC(=O)CCc1ccc(OC)c(-c2cnc(N3CC(F)C3)nc2CN2C(=O)O[C@H](c3cc(C(F)(F)F)cc(C(F)(F)F)c3)[C@@H]2C)c1` [Example 143], the pIC50 was 8.15.
In the case of `CCc1ccc(-c2ccc(C(=O)OC)cc2C)cc1-c1cnc(N2CC(OC)C2)nc1CN1C(=O)O[C@H](c2cc(C(F)(F)F)cc(C(F)(F)F)c2)[C@@H]1C` [Example 137] it was 6.22.
In the case of `COc1ccc(-c2ccc(C(=O)O)cc2C)cc1-c1cnc(N2CC(F)(F)C2)nc1CN1C(=O)O[C@H](c2cc(C(F)(F)F)cc(C(F)(F)F)c2)[C@@H]1C` [Example 160] it was 8.05; in that of `COC(=O)c1coc(-c2ccc(OC)c(-c3ccc(N4CCC4)nc3CN3C(=O)O[C@H](c4cc(C(F)(F)F)cc(C(F)(F)F)c4)[C@@H]3C)c2)c1` [Example 53], 7.21.
Under `CCOC(=O)[C@@H]1C[C@H]1c1ccc(OC)c(-c2ccc(N3CCC3)nc2CN2C(=O)O[C@H](c3cc(C(F)(F)F)cc(C(F)(F)F)c3)[C@@H]2C)c1` [Example 3] stands 8.22; under `CCOC(=O)CC1CCc2cc(OC)c(-c3ccc(N4CCC4)nc3CN3C(=O)O[C@H](c4cc(C(F)(F)F)cc(C(F)(F)F)c4)[C@@H]3C)cc21` (stereo partly shown) [Example 6], 8.15.
Turning to `COc1ccc(CCC(=O)O)cc1-c1cnc(N2CCC2)nc1CN1C(=O)O[C@H](c2cccc(C(F)(F)F)c2)[C@@H]1C` [Example 273], the pIC50 is 5.64.
For `COc1ccc([C@H]2CC[C@H](C(=O)O)CC2)cc1-c1cnc(N2CC(OC)C2)nc1CN1C(=O)O[C@H](c2cc(C(F)(F)F)cc(C(F)(F)F)c2)[C@@H]1C` [Example 186], the pIC50 was 6.86.
Under `COc1ccc([C@@H]2C[C@H]2C(=O)O)cc1-c1ccc(N2CCC2)nc1CN1C(=O)O[C@H](c2cccc(C(F)(F)F)c2)[C@@H]1C` [Example 232] stands 7.27; under `COc1ccc([C@H]2CC[C@H](C(=O)O)CC2)cc1-c1c(C)cc(N2CCC2)nc1CN1C(=O)O[C@H](c2cc(F)cc(C(F)(F)F)c2)[C@@H]1C` [Example 292], 8.15.
As to `COc1ccc([C@H]2CC[C@H](C(=O)O)CC2)cc1-c1ccc(N2CCC2)nc1CN1C(=O)O[C@H](c2ccc(F)c(F)c2)[C@@H]1C` [Example 81], the pIC50 is 6.79.
On to `COc1ccc([C@@H]2CC[C@H](C(=O)O)C2)cc1-c1ccc(N2CCC2)nc1CN1C(=O)O[C@H](c2cc(C(F)(F)F)cc(C(F)(F)F)c2)[C@@H]1C` (single isomer, unassigned) [Example 245], for which the pIC50 was 8.05.
Under `COc1ccc(CCC(=O)O)cc1-c1ccc(N2CC(F)(F)C2)nc1CN1C(=O)O[C@H](c2cc(C(F)(F)F)cc(C(F)(F)F)c2)[C@@H]1C` [Example 64] stands 7.89; under `COC(=O)c1ccc(-c2cc(-c3cnc(N4CC(F)(F)C4)nc3CN3C(=O)O[C@H](c4cc(C(F)(F)F)cc(C(F)(F)F)c4)[C@@H]3C)c(OC)cc2F)c(C)c1` [Example 132], 8.40; under `COc1cc2c(cc1-c1cnc(N3CCC3)nc1CN1C(=O)O[C@H](c3cc(C(F)(F)F)cc(C(F)(F)F)c3)[C@@H]1C)[C@H](CC(=O)O)CC2` [Example 155], 7.40.
In the case of `COc1ccc(CCC(=O)O)cc1-c1c(C)cc(N2CCC2)nc1CN1C(=O)O[C@H](c2cc(C(F)(F)F)cc(C(F)(F)F)c2)[C@@H]1C` [Example 61, 3-{3-[6-Azetidin-1-yl-2-({(4S,5R)-5-[3,5-bis(trifluoromethyl)phenyl]-4-methyl-2-oxo-1,3-oxazolidin-3-yl}methyl)-4-methylpyridin-3-yl]-4-methoxyphenyl}propanoic acid] it was 8.30; in that of `COC(=O)CCc1ccc(OC)c(-c2ccc(N3CCC3)nc2CN2C(=O)O[C@H](c3cc(C(F)(F)F)cc(C(F)(F)F)c3)[C@@H]2C)c1` [Example 1, Methyl 3-{3-[6-azetidin-1-yl-2-({(4S,5R)-5-[3,5-bis(trifluoromethyl)phenyl]-4-methyl-2-oxo-1,3-oxazolidin-3-yl}methy)pyridin-3-yl]-4-methoxyphenyl}propanoate], 8.10.
In the case of `COc1ccc(CCC(=O)O)cc1-c1ccc(N2CCC2)nc1CN1C(=O)O[C@H](c2cc(C(F)(F)F)cc(C(F)(F)F)c2)[C@@H]1C` [Example 60, 3-{3-[6-Azetidin-1-yl-2-({(4S,5R)-5-[3,5-bis(trifluoromethyl)phenyl]-4-methyl-2-oxo-1,3-oxazolidin-3-yl}methyl)pyridin-3-yl]-4-methoxyphenyl}propanoic acid] it was 7.96; in that of `COc1ccc(CCC(=O)O)cc1-c1ccc(N2CCC2)nc1CN1C(=O)O[C@H](c2cc(C)cc(C)c2)[C@@H]1C` [Example 228, 3-[3-(6-azetidin-1-yl-2-{[(4S,5R)-5-(3,5-dimethylphenyl)-4-methyl-2-oxo-1,3-oxazolidin-3-yl]methyl}pyridin-3-yl)-4-methoxyphenyl]propanoic acid], 7.33.
With `COc1ccc([C@H]2CC[C@H](C(N)=O)CC2)cc1-c1ccc(N2CCC2)nc1CN1C(=O)O[C@H](c2cccc(C(F)(F)F)c2)[C@@H]1C` [Example 251], the pIC50 was 7.62.
In the case of `COc1ccc(CCC(=O)O)cc1-c1cnc(N2CCC2)nc1CN1C(=O)O[C@H](c2cc(C(F)(F)F)cc(C(F)(F)F)c2)[C@@H]1C` [Example 171] it was 7.22; in that of `Cc1cc(C(=O)O)ccc1-c1cccc(-c2cnc(N3CCC3)nc2CN2C(=O)O[C@H](c3cccc(C(F)(F)F)c3)[C@@H]2C)c1` [Example 275], 6.22.
In the case of `COC(=O)CC(C)(C)c1ccc(OC)c(-c2ccc(N3CCC3)nc2CN2C(=O)O[C@H](c3ccc(F)c(F)c3)[C@@H]2C)c1` [Example 12] it was 6.64; in that of `COc1ccc([C@H]2C[C@@H]2C(=O)O)cc1-c1c(C)cc(N2CCC2)nc1CN1C(=O)O[C@H](c2cc(C(F)(F)F)cc(C(F)(F)F)c2)[C@@H]1C` [Example 71], 8.30; in that of `COc1ccc(CCc2ncc[nH]2)cc1-c1ccc(N2CCC2)nc1CN1C(=O)O[C@H](c2cc(C(F)(F)F)cc(C(F)(F)F)c2)[C@@H]1C` [Example 268], 7.04.
In the case of `COc1ccc([C@H]2CC[C@H](C(=O)OC)CC2)cc1-c1cnc(N2CCC2)nc1CN1C(=O)O[C@H](c2cc(C(F)(F)F)cc(C(F)(F)F)c2)[C@@H]1C` [Example 125] it was 7.22; in that of `COC(=O)c1scc(-c2ccc(OC)c(-c3cc(Br)c(N4CCC4)nc3CN3C(=O)O[C@H](c4cc(C(F)(F)F)cc(C(F)(F)F)c4)[C@@H]3C)c2)c1C` [Example 50], 7.82; in that of `C[C@H]1[C@@H](c2cc(C(F)(F)F)cc(C(F)(F)F)c2)OC(=O)N1Cc1nc(N2CCC2)ccc1-c1cc(CCCO)ccc1OC1CC1` [Example 260], 7.92.
`COc1ccc(CCC(=O)O)cc1-c1ccc(N2CCC2)nc1CN1C(=O)O[C@H](c2cc(F)cc(F)c2)[C@@H]1C` [Example 82]: the pIC50 was 6.32.
With `COc1cc(F)c([C@H]2C[C@H](C(=O)O)C2)cc1-c1ccc(N2CCC2)nc1CN1C(=O)O[C@H](c2cc(C(F)(F)F)cc(C(F)(F)F)c2)[C@@H]1C` [Example 104], the pIC50 was 8.40.
Under `COC(=O)C[C@H]1C[C@H](c2ccc(OC)c(-c3ccc(N4CCC4)nc3CN3C(=O)O[C@H](c4cc(C(F)(F)F)cc(C(F)(F)F)c4)[C@@H]3C)c2)C1` [Example 26] stands 8.15.
